From patent US4485239A, “2-(2,6-Dimethyl-3,5-diethoxycarbonyl-1,4-dihydropyridine-4-carboxamide glutaric acid its disodium salt and method of their preparation” (priority 1982, dated 1984)
Where a name gives a salt, the structure may show the parent alone. Read-outs that look alike come from different tables or passages of the source.

Experiments:
Solubility in water = type: physicochemical
[1] = test system: experimental models of arrhythmia; assay: Antiarrhythmic activity on experimental models of arrhythmia (calcium, aconitic and strophanthin), overall; type: in vivo, mice, rats, guinea pigs; settings: for antiarrhythmic activity: in vivo
Procedure: The action of 2-(2,6-dimethyl-3,5-diethoxycarbonyl-1,4-dihydropyridine-4-carboxamide) glutaric acid and its disodium salt on the cardiovascular system was studied in experiments with mice, rats, guinea pigs and cats. […] Antiarrhythmic agents such as quinidine and novocaine amide (procaine amide) were used for comparisons in the […] study.
(§1) In the experiments on white mice narcotized with urethane ECGs were recorded in the second standard lead. A 2% solution of calcium chloride was injected into the tail vein at a constant rate (00.1 ml during 2 seconds).
(§2) Comparative study of the antiarrhythmic activity of the compounds on an aconitic model of arrhythmia was carried out on albino rats narcotized with urethane and chloralose (intraperitoneally), ECGs were recorded in the second standard lead.
Guinea pigs were narcotized with urethane and chloralose then strophanthin was administered in them, and against the background of arrhythmia, the above compound was administered intravenously. The doses of the compound, that arrest the strophanthin arrhythmia in the guinea pigs were recorded.

[2] = test system: arrythmogenic and lethal effects of calcium chloride; assay: Antagonism towards the arrhythmogenic and lethal effects of calcium chloride in mice (ECG); type: in vivo
Procedure: as §1

cardiovascular system = assay: Acute experiments in narcotized cats: arterial pressure, respiration, ECG and haemodynamic effects of acetyl choline; type: in vivo
Procedure: In acute experiments with cats narcotized with chloralose and urethane arterial pressure, respiration and ECG were recorded. The influence of the above comound on the arterial pressure, respiration, and on the haemodynamic effects of acetyl choline were investigated. Anaqueous solution of the compound was administered intravenously.

in vivo = settings: mouse, in vivo, ip
From the text: (§3) Acute toxicity was investigated on mongrel white mice of both sexes (Table 2).

white mice = assay: in vivo; settings: intraperitoneal
From the text: as §3

Aconitic arrhythmia = assay: Antiarrhythmic activity on aconitic model of arrhythmia in rats; type: in vivo, albino rats; settings: for ED50: Rattus norvegicus, ip, read-out: ED50, aconitic arrhythmia in rats (average effective antiarrhythmic dose)
Procedure: as §2

Strophanthin arrhythmia = assay: Arrest of strophanthin arrhythmia in guinea pigs; type: in vivo; settings: for ED50: Cavia porcellus, read-out: ED50, strophanthin arrhythmia in guinea pigs
cardiac arrhythmia = settings: cited from earlier work; for antiarrhythmic activity / effect on arterial pressure (side-effect): medical practice; for antiarrhythmic activity / effect on arterial pressure (side-effect) / toxicity: prior art
[3] = cats, intravenous, 0.1-0.2 g/kg
[4] = guinea pigs, intravenous, against background of arrhythmia
[5] = strophanthin arrhythmia, guinea pigs
[6] = compound dose 3 mg/kg intraperitoneally
[7] = compound dose 6 mg/kg intraperitoneally
[8] = compound dose 10 mg/kg intraperitoneally
[9] = compound dose 30 mg/kg intraperitoneally

Structure (SMILES) | solubility in water (Solubility in water) | antiarrhythmic activity [1] | LD50 (in vivo) | ED50 (Aconitic arrhythmia) | ED50 (Strophanthin arrhythmia; [4]) | Dose of CaCl2, arrhythmogenic [2, 6] | Dose of CaCl2, lethal [2, 6] | Dose of CaCl2, arrhythmogenic [2, 8] | Dose of CaCl2, lethal [2, 8] | antiarrhythmic activity (cardiac arrhythmia) | effect on arterial pressure (side-effect) (cardiac arrhythmia) | toxicity (cardiac arrhythmia) | further results
CCOC(=O)C1=C(C)NC(C)=C(C(=O)OCC)C1C(=O)NC(CCC(=O)O)C(=O)O (stereo not shown) [Compound of formula I, 2-(2,6-dimethyl-3,5-diethoxycarbonyl-1,4-dihydropyridine-4-carboxamide) glutaric acid] | hardly soluble in water | pronouncedantiarrhythmic activity |  |  |  |  |  |  |  |  |  |  | antiarrhythmic effect compared with novocaine amide ([2]; novocaine amide dose 30 mg/kg, CaCl2 model, mice): same antiarrhythic effect as novocaine amide in a dose of 30 mg/kg
CCOC(=O)C1=C(C)NC(C)=C(C(=O)OCC)C1C(=O)NC(CCC(=O)O)C(=O)O (stereo not shown) [Compound of formula II, disodium salt of 2-(2,6-dimethyl-3,5-diethoxycarbonyl-1,4-dihydropyridine-4-carboxamide) glutaric acid] | well soluble in water | pronounced antiarrhythmic activity | > 2000 mg/kg | 3 ± 0.5 mg/kg | 2.1 ± 0.3 mg/kg | 98.4 mg/kg | 105.0 mg/kg | 130.5 mg/kg | 140.5 mg/kg |  |  |  | change in arterial pressure (cardiovascular system; [3]): does not cause any significant change; change in pulse rate (cardiovascular system; [3]): does not cause any significant change; change in respiration rate (cardiovascular system; [3]): does not cause any significant change; response reaction to acetyl choline (cardiovascular system; cats, intravenous, doses of up to 4 mg/kg): does not reduce the response reaction to acetyl choline; drop of the arterial pressure (cardiovascular system; intravenous application): does not cause a drastic drop of the arterial pressure; toxicity relative to novocaine amide (white mice; mice): 1/17; toxicity relative to quinidine (white mice; mice): 1/12; antiarrhythmic activity compared with quinidine and novocaine amide (Aconitic arrhythmia; aconitic model, rats, intraperitoneal 30-40 minutes before aconitine): higher antiarrhythmic activity than quinidine and novocane amide; activity on experimental models of arrhythmia compared with quinidine and novocaine amide ([1]; calcium, aconitic and strophanthin models): higher activity on all kinds of experimental models of arrhythmia; effect on experimental strophanthin arrhythmia (Strophanthin arrhythmia; guinea pig, in vivo): stable effect; activity compared with quinidine (Strophanthin arrhythmia; [5]): not inferior to quinidine; activity relative to novocaine amide (Strophanthin arrhythmia; [5]): approximately 25 fold; Dose of CaCl2, arrhythmogenic [2, 7]: 127.4 mg/kg; Dose of CaCl2, lethal [2, 7]: 134.5 mg/kg; effect on arrhythmogenic and lethal doses of calcium chloride ([2]; preliminary administration 20-30 minutes prior to narcosis, mice): considerably increases
CCN(CC)CCNC(=O)c1ccc(N)cc1 [Novocaine amide, reference compound] |  |  | 290 mg/kg | 45 ± 5 mg/kg | 55 ± 7.3 mg/kg |  |  | 116.0 mg/kg | 120.0 mg/kg | insufficient antiarrthythmic activity | drastically reduce the arterial pressure | toxic | Dose of CaCl2, arrhythmogenic [2, 9]: 127.0 mg/kg; Dose of CaCl2, lethal [2, 9]: 138.0 mg/kg
C=C[C@H]1C[N@@]2CC[C@H]1C[C@@H]2[C@@H](O)c1ccnc2ccc(OC)cc12 [Quinidine, reference compound] |  |  | 156 mg/kg | 4.3 ± 0.6 mg/kg |  | 126.9 mg/kg | 136.0 mg/kg | 120.8 mg/kg | 133.5 mg/kg | insufficient antiarrthythmic activity | drastically reduce the arterial pressure | toxic | Acute toxicity, LD50 (white mice; white mice, confidence limit at P = 0.05): 156 mg/kg; ED50 (Strophanthin arrhythmia; iv): 2.3 ± 0.4 mg/kg; effect on strophanthin arrhythmia, in clinic (cardiac arrhythmia; clinic): in some cases is ineffective
